{"source": "paper PMC12388506", "about": "“Preclinical Evaluation of 2-Aminobenzothiazole Derivatives: In Silico, In Vitro, and Preliminary In Vivo Studies as Diabetic Treatments and Their Complications” (Molecules, 2025);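 for relative ALR2 inhibition: inhibition calculated from the rate of NADPH cofactor consumption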", "key": {"[1]": {"test_system": "STZ-HFD-induced T2D Wistar rats", "assay": "Acute evaluation of blood glucose in STZ-HFD-induced T2D model", "assay_type": "in vivo, rat", "conditions": "8d 32 mg/Kg oral", "experimental": "(§1) In vivo experiments were conducted in an acute and a subchronic model, where Wistar rats (180–220 g) were used. The study covered a total period of 10 weeks and was carried out under the Mexican Standard, and the “Guide for the Care and Use of Laboratory Animals” of the National Research Council and Health Institutes was followed.\n(§2) At first, animals were housed in polypropylene cages under conditions of controlled temperature (20–25 °C), relative humidity (36–60%), and light/dark cycles, with water ad libitum. Before starting the experiment, they were given a one-week acclimatization period to adapt to their new habitat. Once finalized, animals were fed an HFD for 3 weeks to generate insulin resistance.\nAfter this period, the animals fasted for 12 h and then were administered intraperitoneally with a single dose of 35 mg/Kg of STZ dissolved in a buffer of 0.1 M citrate, pH 4.5 (prepared on the same day of administration). […]\nOne week after administration, postprandial blood glucose levels were measured by venipuncture using a glucometer. […]\nOnce the experimental groups were formed, a fixed schedule was established for the daily oral administration of the respective treatments. […] On the third day of treatment, postprandial blood glucose was measured with a glucometer Freestyle® (Abbott Diabetes Care, Alameda, CA, USA), extracting a drop of blood from the caudal vein of each rat. […]"}, "[2]": {"test_system": "STZ-HFD-induced T2D Wistar rats", "assay": "Subchronic evaluation in STZ-HFD-induced T2D model", "assay_type": "in vivo, rat", "set-up": "HbA1c: unit not given here", "experimental": "as §1, §2\nAfter this period, the animals fasted for 12 h and then were administered intraperitoneally with a single dose of 35 mg/Kg of STZ dissolved in a buffer of 0.1 M citrate, pH 4.5 (prepared on the same day of administration). Once administered, the hypercaloric diet was maintained, and 10% sucrose solution was placed on demand for 2 days.\nOne week after administration, postprandial blood glucose levels were measured by venipuncture using a glucometer. Those animals that maintained a glucose level between 200 and 400 mg/dL were included in the study.\nTreatments were administered daily as described above, adjusting the dose according to the weight of the individuals. Fasting glucose levels (6 h fast) were monitored every 7 days until the end of treatments at week 10 (Figure 14). Halfway through the last week of treatment, the OGTT was performed, administering a dose of 1.5 g/Kg of glucose orally and subsequently monitoring capillary blood glucose at 0, 15, 30, 60, 90, and 120 min [62]. In addition, a 24-element blood chemistry was measured in a Celercare V automated dry chemistry analyzer (Tianjin MNCHIP Technologies Co., Ltd., Tianjin, China) at the beginning and end of the model. For this purpose, the blood samples were obtained from the tail of the rat.\nAt the end of the study, animals fasted for 12 h and were taken to a humane endpoint, where blood samples were obtained. These were kept at room temperature for 30 min and then centrifuged at 4000 RPM for 15 min at 4 °C. Finally, the serum was used to perform 24-element blood chemistry and quantify Trolox-equivalent TAC [86], TNF-α [87], and IL-6 levels using commercial kits from Merck (Darmstadt, Germany), Sigma-Aldrich (St. Louis, MO, USA), Cat. No. MAK334-1KT, RAB0479-1KT, and RAB0311-1KT, respectively. In addition, insulin was quantified using the Rat Ins1/Insulin ELISA Kit, from Sigma-Aldrich, No. Cat. RAB0904-1KT [89] to determine the HOMA-IR index. All kits were performed according to the manufacturer’s instructions without modifications."}, "ABTS assay": {"assay": "ABTS assay", "experimental": "All synthesized compounds were evaluated at 30 μM, 50 μM, 70 μM, 90 μM, and 110 μM under two of the most widely used methods in research to directly measure the antioxidant and anti-radical intrinsic capacity, FRAP, and ABTS assay, which were validated by a dose–response curve of 5-ASA as a reference. In the same way, these tests were carried out in triplicate using an assay kit (from Pharmaceutical and Biotechnological Innovation-Services) according to the manufacturer’s instructions."}, "ALR2 enzyme": {"target": "T1, ALR2 enzyme (Homo sapiens, UniProt P15121)", "T1 construct": "purchased ab273276", "assay": "ALR2 activity assay kit (ab273276), inhibition", "assay_type": "biochemical", "experimental": "The obtained dose–response curve had concentrations of 10 μM, 5 μM, 500 nM, 50 nM, and 5 nM."}, "[3]": {"conditions": "after the induction of T2D, before treatment"}}}
{"smiles": "COC(=O)[C@H](Cc1ccccc1)N/C(=N\\c1nc2ccccc2s1)SC", "note": "[8d, Methyl (E)-((benzo[d]thiazol-2-ylimino)(methylthio)methyl)-L-phenylalaninate]", "values": [{"measurement": "blood glucose after a single administration, without prior fasting", "setting": "[1]", "value": "~ 200 mg/dL"}, {"measurement": "HOMA-IR", "setting": "[2]; After 5 weeks of treatment", "value": "1.66 ± 0.611"}, {"measurement": "R-QUICKI", "setting": "[2]; After 5 weeks of treatment", "value": "0.376 ± 0.031"}, {"measurement": "HbA1c", "setting": "[2]; After 5 weeks of treatment, mean ± SEM, n = 4", "value": "9.267 ± 0.802"}, {"measurement": "HOMA-IR", "setting": "[2]; Final (end of 5 weeks treatment), PGZ 30 mg/Kg, 8d 32 mg/Kg, mean ± SEM, n = 4", "value": "1.66 ± 0.61"}, {"measurement": "HOMA-IR", "setting": "[2]; Initial (beginning of treatment), PGZ 30 mg/Kg, 8d 32 mg/Kg, mean ± SEM, n = 4", "value": "4.22 ± 1.58"}, {"measurement": "HOMA-IR", "setting": "[2]; [3]", "value": "4.22 ± 1.577"}, {"measurement": "R-QUICKI", "setting": "[2]; [3]", "value": "0.318 ± 0.013"}, {"measurement": "HbA1c", "setting": "[2]; after the induction of T2D, before treatment, mean ± SEM, n = 4", "value": "8.633 ± 0.536"}, {"measurement": "adipogenic effect at necropsy", "setting": "[2]; after treatment", "value": "clear adipogenic effect"}, {"measurement": "polydipsia (water consumption)", "setting": "[2]; daily oral treatment", "value": "decreasing the polydipsia after the first week of treatment"}, {"measurement": "fasting blood glucose, subchronic", "setting": "[2]; daily oral, 5 weeks", "value": "lower blood glucose levels close to the normoglycemia of the healthy group"}, {"measurement": "redistribution of adipose tissue from visceral to subcutaneous fat", "setting": "[2]; necropsy", "value": "barely perceptible"}, {"measurement": "Percentage reduction of radical cation ABTS", "setting": "ABTS assay; 30 µM", "value": -4.0, "unit": "%"}, {"measurement": "Percentage reduction of radical cation ABTS", "setting": "ABTS assay; 50 µM", "value": -3.0, "unit": "%"}, {"measurement": "Percentage reduction of radical cation ABTS", "setting": "ABTS assay; 70 µM", "value": -4.2, "unit": "%"}, {"measurement": "Percentage reduction of radical cation ABTS", "setting": "ABTS assay; 90 µM", "value": -3.6, "unit": "%"}, {"measurement": "Percentage reduction of radical cation ABTS", "setting": "ABTS assay; 110 µM", "value": -2.5, "unit": "%"}, {"measurement": "concentrations at which ALR2 was inhibited", "setting": "ALR2 enzyme", "value": "below 10 µM"}, {"measurement": "concentration dependence of ALR2 inhibition (IC50 not calculable)", "setting": "ALR2 enzyme; 10 μM to 5 nM", "value": "did not show a concentration-dependent response"}, {"measurement": "relative ALR2 inhibition", "setting": "ALR2 enzyme; Inhibitor concentration 5 nm", "value": 93.590, "unit": "%"}, {"measurement": "relative ALR2 inhibition", "setting": "ALR2 enzyme; Inhibitor concentration 50 nm", "value": 91.644, "unit": "%"}, {"measurement": "relative ALR2 inhibition", "setting": "ALR2 enzyme; Inhibitor concentration 500 nm", "value": 86.494, "unit": "%"}, {"measurement": "relative ALR2 inhibition", "setting": "ALR2 enzyme; Inhibitor concentration 5000 nm", "value": 80.389, "unit": "%"}, {"measurement": "relative ALR2 inhibition", "setting": "ALR2 enzyme; Inhibitor concentration 10000 nm", "value": 89.966, "unit": "%"}]}
